In patent US7790947B2 (priority 2001, dated 2010):

Columns and labels:
hemoglobin = hemoglobin (Homo sapiens, UniProt P68871); conditions: cited from earlier work
TSS-1 production = test: Inhibition of TSS-1 production by salt or acid residue in absorbent foam; assay type: cell-based, S. aureus; conditions: residual salt or acid in dried foam, between 0.1% and 10% weight percent of foam
[1] = tested on: TSST-1 toxin production by S. aureus; conditions: cited from earlier work
TSST-1 toxin = TSST-1 toxin (Staphylococcus aureus, UniProt P06886); conditions: mechanism unknown; cited from earlier work
TSST-1 toxin, sequence (P06886 41-234 limits assumed): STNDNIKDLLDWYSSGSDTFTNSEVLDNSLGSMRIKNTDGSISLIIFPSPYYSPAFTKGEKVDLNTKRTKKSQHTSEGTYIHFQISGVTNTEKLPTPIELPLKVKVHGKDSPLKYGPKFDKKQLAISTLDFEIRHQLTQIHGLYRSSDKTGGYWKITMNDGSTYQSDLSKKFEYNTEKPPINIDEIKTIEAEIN

hemoglobin, sequence (P68871 2-147 limits assumed): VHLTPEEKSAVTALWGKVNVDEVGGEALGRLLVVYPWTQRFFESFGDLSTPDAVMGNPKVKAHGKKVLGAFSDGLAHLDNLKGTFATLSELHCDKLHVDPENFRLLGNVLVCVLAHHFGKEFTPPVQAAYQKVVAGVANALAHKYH
hemoglobin, sequence (P69905 2-142 partner limits assumed): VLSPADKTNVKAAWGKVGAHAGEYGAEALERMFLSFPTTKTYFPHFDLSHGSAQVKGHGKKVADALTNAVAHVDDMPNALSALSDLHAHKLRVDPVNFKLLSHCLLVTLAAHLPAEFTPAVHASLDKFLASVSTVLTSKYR

| Molecule | inhibition of TSS-1 production (TSS-1 production) | effect on toxin (TSST-1) production by S. aureus [1] | other results |
| --- | --- | --- | --- |
| O=C(O)C(COP(=O)(O)O)OP(=O)(O)O (stereo not drawn) [BPG, 2,3-bisphosphoglycerate] |  |  | lowering of the affinity of oxygen for hemoglobin (factor) (hemoglobin): 26 |
| [Ca+2].[Cl-].[Cl-] [CaCl2] | inhibit TSS-1 production |  |  |
| [Cl-].[Cl-].[Mg+2] [MgCl2] | inhibit TSS-1 production |  |  |
| O=C1O[C@H]([C@@H](O)CO)C(O)=C1O [ascorbic acid] | inhibit TSS-1 production | reduce toxin production and/or deactiviate the toxin TSST-1 | deactivation of the toxin (TSST-1 toxin): deactivates the toxin |
| OCC(O)CO [glycerol] |  | reduce toxin production and/or deactiviate the toxin TSST-1 |  |
| O=C1O[C@H]([C@@H](O)CO)C([O-])=C1O.[Na+] [sodium ascorbate] | inhibit TSS-1 production |  |  |
| tocopherol |  | reduce toxin production and/or deactiviate the toxin TSST-1 |  |
